This assay has as its system AhR. Nature of the assay: DRE driven luciferase activity of C6 DRE stable clone (pGL-2 pro/DRE) and pGL2 control cell line. The class given is cell-based, rat. The following applies: C6 glioma cells, pGL-2 pro/DRE stable clone versus pGL2 control cell line; FIG. 1. The text has this: The plasmid pGL-2 pro/DRE was constructed by inserting a synthesized DNA fragment containing three rat dioxin responsive element (DRE, […] CGCAACTCGCTAGCATA; SEQ ID NO:1) between the KpnI and NheI sites of pGL2-promoter (pGL2 pro). To generate pGL-2 pro/DRE stable clones, plasmids pGL-2 pro/DRE and pCMV-Tag 2B were co-transfected into C6 glioma cells by Lipofectamine™ 2000. Meanwhile, plasmid pGL-2 pro and pCMV-Tag 2B were followed the same conditions to generate pGL-2 control cell line. These transfected cells were selected by Geneticin® (G418, 500 μg/ml) for 18 days. The stable clones of C6 cells were obtained and maintained in DMEM with 10% FBS and G418. To examine the stably insertion of pGL-2 pro/DRE or pGL-2 pro, the G418 resistant cells were harvested to extracted genomic DNA for polymerase chain reaction (PCR). The inserted DNA was confirmed to amplify 392 bps for pGL-2 pro/DRE stable insertion or 324 bps for pGL-2 pro (pGL-2) stable insertion, respectively. Finally, the metabolic degradable AhR agonist, 3-methylcholanthere (3MC), was used to examine the luciferase activity of pGL-2 pro/DRE C6 stable clones.
The metabolic degradable AhR agonist, 3-methylcholanthere (3MC), was used to examine the DRE driven luciferase activity of C6 DRE stable clone and pGL2 control cell line.

As to `Cc1ccc2cc3c(ccc4ccccc43)c3c2c1CC3` [3MC, 3-methylcholanthere], the “DRE driven luciferase activity (luminescence)” value is “increase luminescence in a dose response only in DRE stable clone”.

(Values after patent US8211695B2, “Isolated transgenic mammalian neural cell for detection of a sample containing a chemical substance damage to neurological system or selection of drugs for treating neurodegenerative disorders” (Taipei Medical University, priority 2010, dated 2012).)
